What all share (assay type): functional
Assay [1] has as its target T1, Sentrin-specific protease 7 (Homo sapiens, UniProt Q9BQF6).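 Further: Luminescence-based dose-response confirmation of ultra-high-throughput screening hits, measuring inhibition of SENP7.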
T1 sequence (Q9BQF6 whole entry): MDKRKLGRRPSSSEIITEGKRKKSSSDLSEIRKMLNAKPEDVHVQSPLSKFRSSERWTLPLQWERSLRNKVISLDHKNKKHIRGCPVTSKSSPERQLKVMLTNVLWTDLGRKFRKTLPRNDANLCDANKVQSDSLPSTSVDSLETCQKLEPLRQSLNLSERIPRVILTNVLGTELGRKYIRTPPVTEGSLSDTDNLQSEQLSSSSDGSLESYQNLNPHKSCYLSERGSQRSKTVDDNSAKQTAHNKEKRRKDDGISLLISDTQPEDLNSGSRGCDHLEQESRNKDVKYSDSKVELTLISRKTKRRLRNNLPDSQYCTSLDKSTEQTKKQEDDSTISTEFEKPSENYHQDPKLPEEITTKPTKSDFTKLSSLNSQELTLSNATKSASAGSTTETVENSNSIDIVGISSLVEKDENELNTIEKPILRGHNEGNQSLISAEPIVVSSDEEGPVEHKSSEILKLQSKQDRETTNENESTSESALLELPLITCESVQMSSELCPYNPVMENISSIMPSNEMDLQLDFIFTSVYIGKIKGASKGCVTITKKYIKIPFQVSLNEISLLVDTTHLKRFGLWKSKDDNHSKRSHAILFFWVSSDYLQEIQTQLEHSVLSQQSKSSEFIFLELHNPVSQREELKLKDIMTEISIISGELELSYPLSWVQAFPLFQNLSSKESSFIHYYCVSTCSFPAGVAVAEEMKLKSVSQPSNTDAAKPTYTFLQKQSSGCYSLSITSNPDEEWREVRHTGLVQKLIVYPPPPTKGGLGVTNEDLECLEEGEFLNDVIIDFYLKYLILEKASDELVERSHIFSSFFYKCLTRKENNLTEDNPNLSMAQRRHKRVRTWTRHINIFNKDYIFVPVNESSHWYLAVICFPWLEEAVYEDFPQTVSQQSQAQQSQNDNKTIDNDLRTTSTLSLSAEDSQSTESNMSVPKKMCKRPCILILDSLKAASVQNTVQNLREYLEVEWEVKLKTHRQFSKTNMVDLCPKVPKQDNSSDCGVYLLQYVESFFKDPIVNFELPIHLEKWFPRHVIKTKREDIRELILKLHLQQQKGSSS

The target of assay [2] is T2, Sentrin-specific protease 6 (Homo sapiens, UniProt Q9GZR1).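 Further: Luminescence-based dose-response confirmatory assay of SENP6 inhibition, following up an ultra-high-throughput screen.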
T2 sequence (Q9GZR1 whole entry): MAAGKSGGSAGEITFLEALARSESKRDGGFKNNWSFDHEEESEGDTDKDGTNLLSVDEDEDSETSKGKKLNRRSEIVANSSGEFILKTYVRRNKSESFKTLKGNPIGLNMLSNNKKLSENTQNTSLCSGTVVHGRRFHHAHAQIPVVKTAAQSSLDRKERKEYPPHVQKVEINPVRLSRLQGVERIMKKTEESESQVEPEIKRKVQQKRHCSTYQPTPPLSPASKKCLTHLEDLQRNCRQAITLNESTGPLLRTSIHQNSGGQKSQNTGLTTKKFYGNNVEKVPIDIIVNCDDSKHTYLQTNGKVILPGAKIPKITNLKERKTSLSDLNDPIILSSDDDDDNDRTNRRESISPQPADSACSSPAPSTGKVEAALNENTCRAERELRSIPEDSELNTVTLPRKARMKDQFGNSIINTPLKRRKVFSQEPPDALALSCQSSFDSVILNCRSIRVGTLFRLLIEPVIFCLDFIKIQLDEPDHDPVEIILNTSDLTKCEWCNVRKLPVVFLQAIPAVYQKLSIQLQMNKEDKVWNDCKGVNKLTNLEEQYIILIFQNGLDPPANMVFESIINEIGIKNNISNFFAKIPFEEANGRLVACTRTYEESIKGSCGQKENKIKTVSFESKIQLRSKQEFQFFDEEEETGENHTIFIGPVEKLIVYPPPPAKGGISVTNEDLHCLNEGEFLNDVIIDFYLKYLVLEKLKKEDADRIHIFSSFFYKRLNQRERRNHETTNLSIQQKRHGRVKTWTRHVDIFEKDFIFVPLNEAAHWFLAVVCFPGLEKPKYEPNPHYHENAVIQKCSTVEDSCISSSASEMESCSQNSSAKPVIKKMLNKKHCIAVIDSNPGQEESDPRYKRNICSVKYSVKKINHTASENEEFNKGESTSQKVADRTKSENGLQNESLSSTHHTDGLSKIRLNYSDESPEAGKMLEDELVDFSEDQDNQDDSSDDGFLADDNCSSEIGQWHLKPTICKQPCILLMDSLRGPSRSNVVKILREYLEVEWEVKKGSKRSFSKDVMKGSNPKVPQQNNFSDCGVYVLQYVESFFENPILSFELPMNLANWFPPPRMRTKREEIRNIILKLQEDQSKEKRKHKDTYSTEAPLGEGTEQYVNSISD

Assay [3] has as its target Macrophage-stimulating protein receptor (Homo sapiens, UniProt Q04912). The assay is described as follows: Navigating the Kinome. Panel member name: MST1R.
The target in assay [4] is BDNF/NT-3 growth factors receptor (Homo sapiens, UniProt Q16620).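 Further: NTRK2 measured as one member of a broad kinome-wide kinase profiling panel.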
Assay [5] concerns the target Rho-associated protein kinase 1 (Homo sapiens, UniProt Q13464).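 Further: measured within a broad kinome-wide panel profiling many kinases.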
Assay [6] concerns the target Glycogen synthase kinase-3 beta (Homo sapiens, UniProt P49841).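 Further: value comes from a broad kinome profiling panel, with GSK3B as the panel member.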
Assay [7] has as its target Dual specificity protein kinase CLK2 (Homo sapiens, UniProt P49760).

Data on three molecules can be found in ChEMBL document CHEMBL1201862, “PubChem BioAssay data set” (2004).

The source made the active and inactive calls.

Chain of Glycogen synthase kinase-3 beta (P49841 whole entry): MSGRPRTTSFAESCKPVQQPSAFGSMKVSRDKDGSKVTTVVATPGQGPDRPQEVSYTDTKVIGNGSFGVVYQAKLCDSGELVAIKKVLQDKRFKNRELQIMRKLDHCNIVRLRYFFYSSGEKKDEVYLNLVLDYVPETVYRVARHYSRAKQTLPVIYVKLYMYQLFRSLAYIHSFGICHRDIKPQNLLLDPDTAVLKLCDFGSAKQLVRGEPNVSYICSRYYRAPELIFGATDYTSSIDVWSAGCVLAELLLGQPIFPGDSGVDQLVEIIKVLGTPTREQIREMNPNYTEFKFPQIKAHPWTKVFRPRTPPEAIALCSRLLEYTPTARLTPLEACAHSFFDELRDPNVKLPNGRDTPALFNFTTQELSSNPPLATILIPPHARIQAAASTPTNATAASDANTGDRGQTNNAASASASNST
Chain of Macrophage-stimulating protein receptor (Q04912 25-304 limits assumed): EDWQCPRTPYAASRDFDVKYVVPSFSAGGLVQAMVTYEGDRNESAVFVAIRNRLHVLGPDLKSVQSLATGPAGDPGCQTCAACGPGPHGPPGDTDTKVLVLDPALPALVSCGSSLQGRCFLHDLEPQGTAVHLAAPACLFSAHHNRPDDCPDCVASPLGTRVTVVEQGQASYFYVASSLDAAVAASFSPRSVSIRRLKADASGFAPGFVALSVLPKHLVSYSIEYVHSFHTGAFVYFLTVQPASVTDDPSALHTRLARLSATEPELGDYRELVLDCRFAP
Chain of Macrophage-stimulating protein receptor (Q04912 310-1400 limits assumed): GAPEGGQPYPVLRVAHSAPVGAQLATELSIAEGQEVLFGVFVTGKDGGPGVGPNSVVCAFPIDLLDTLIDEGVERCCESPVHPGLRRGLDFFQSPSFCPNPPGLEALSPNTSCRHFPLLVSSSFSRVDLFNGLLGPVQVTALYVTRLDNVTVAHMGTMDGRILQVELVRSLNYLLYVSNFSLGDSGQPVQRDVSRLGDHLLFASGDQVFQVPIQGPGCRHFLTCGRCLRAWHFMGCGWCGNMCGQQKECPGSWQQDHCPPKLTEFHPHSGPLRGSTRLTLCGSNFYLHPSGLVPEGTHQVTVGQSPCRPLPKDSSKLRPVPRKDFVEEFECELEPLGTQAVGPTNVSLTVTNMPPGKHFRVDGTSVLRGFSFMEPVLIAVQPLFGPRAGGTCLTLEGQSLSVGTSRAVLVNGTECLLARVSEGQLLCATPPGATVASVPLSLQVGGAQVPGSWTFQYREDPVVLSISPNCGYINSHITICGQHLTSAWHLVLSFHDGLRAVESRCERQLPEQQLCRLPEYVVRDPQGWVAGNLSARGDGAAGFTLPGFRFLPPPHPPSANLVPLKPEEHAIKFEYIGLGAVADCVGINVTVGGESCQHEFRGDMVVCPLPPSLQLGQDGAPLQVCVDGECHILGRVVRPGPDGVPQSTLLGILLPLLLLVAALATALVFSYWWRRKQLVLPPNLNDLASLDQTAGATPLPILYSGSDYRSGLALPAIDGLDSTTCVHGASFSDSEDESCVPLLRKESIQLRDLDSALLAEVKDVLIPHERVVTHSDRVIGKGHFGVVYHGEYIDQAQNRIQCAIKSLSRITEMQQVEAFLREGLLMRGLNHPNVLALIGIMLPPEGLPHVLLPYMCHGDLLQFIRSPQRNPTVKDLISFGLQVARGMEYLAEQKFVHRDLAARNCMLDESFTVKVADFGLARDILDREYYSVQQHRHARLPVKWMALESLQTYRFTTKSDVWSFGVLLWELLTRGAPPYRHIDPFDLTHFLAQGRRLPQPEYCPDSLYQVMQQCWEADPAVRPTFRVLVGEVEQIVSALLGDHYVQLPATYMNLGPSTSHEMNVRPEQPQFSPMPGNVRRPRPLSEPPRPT
Chain of Dual specificity protein kinase CLK2 (P49760 whole entry): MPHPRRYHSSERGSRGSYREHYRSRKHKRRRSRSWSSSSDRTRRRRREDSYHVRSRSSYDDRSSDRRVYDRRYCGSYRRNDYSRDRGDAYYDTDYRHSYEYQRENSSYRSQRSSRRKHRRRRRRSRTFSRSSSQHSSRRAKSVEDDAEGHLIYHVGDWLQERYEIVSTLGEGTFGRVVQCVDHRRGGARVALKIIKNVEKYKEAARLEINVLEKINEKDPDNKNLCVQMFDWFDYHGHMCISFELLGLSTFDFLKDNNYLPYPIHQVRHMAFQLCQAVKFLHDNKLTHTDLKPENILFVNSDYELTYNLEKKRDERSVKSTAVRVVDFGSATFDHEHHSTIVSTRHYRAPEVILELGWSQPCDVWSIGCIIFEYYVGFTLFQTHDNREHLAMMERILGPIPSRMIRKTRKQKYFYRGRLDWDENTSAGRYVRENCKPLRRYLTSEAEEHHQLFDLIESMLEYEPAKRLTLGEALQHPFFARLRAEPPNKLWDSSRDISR
Chain of BDNF/NT-3 growth factors receptor (Q16620 whole entry): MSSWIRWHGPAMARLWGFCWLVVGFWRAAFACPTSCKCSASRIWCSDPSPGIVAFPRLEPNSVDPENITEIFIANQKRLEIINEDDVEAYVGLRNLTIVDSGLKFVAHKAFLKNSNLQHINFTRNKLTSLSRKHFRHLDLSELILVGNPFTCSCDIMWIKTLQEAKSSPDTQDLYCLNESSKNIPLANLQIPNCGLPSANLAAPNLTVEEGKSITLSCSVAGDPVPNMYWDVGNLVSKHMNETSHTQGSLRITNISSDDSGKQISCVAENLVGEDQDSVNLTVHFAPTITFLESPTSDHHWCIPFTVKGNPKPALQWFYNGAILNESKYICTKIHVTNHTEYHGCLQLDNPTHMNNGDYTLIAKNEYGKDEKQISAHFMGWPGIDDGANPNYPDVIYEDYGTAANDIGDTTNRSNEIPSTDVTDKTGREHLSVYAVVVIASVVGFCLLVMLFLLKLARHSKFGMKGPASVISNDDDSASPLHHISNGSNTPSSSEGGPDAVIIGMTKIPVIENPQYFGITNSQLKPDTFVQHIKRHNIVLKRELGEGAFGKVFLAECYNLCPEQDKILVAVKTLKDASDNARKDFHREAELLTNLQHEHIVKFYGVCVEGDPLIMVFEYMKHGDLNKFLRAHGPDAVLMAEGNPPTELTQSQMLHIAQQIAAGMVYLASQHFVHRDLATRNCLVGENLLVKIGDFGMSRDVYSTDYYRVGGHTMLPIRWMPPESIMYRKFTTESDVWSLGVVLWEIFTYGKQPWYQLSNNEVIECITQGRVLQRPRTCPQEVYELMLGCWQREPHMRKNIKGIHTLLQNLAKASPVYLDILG
Chain of Rho-associated protein kinase 1 (Q13464 whole entry): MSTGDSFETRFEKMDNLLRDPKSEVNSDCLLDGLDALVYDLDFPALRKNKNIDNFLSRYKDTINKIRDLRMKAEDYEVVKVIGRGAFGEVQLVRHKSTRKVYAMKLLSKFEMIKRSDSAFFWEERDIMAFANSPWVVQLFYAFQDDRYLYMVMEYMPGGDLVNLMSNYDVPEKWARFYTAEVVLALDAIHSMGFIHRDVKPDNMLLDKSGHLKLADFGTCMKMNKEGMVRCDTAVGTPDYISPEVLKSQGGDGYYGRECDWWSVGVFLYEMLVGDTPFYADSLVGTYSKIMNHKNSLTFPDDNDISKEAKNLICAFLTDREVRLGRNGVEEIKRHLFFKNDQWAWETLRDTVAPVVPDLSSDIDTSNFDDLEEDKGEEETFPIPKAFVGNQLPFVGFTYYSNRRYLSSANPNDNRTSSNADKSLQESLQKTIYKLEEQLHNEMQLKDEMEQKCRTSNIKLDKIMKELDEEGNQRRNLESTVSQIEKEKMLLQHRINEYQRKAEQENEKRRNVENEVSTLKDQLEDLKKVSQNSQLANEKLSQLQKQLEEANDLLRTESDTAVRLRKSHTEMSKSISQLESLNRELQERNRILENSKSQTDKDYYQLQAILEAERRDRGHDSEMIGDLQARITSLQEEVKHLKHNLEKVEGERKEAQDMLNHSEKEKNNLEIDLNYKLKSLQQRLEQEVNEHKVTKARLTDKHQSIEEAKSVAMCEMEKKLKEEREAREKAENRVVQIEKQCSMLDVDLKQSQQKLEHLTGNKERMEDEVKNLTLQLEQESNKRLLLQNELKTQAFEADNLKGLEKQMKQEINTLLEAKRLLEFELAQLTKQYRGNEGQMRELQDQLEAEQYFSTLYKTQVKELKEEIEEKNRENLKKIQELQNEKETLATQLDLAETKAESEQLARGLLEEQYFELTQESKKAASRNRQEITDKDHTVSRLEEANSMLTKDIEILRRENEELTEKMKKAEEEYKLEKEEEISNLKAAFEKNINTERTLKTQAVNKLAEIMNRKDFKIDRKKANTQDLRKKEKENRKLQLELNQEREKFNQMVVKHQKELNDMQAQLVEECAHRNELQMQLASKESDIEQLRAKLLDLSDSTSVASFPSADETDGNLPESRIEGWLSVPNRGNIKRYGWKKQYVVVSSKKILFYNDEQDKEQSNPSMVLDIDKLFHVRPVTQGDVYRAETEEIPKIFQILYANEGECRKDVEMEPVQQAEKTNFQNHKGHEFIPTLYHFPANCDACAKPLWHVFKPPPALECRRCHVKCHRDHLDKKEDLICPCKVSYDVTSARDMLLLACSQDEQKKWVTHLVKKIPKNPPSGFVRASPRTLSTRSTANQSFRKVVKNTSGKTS

The term IC50 denotes the concentration needed to halve the response being measured. `CCc1cc[n+](C2=C([N-]S(=O)(=O)c3cccs3)C(=O)c3ccccc3C2=O)cc1`: the results for the IC50 in assay [1] and in assay [2] were 8.3 µM (active) and 3.57 µM (active), respectively.
By Ki is commonly meant the dissociation constant of the complex between target and ligand, obtained from inhibition or displacement. `O=C1NC(=O)C(c2c[nH]c3ccccc23)=C1c1nc(N2CCNCC2)nc2ccccc12`: the Ki in assay [3] is 0.1 µM (active); in assay [4], > 3.98 µM (inactive); in assay [5], > 2 µM (inactive); in assay [6], > 3.98 µM (inactive); in assay [7], > 2.51 µM (inactive).
As to `COc1ccccc1N(/N=C1\Sc2ccccc2C1=O)C(C)=O`, the half-inhibitory concentration (IC50) in assay [1] is 6.78 µM (active); in assay [2] it was 4.28 µM (active).
